Results as given in ChEMBL document CHEMBL1139763, “Pyrrolidines as potent functional agonists of the human melanocortin-4 receptor” (Bioorg Med Chem Lett, 2007).
pEC50, pKi: −log10 of the molar value.

Tests used:
Melanocortin receptor 4 [1] = biological target: T1, Melanocortin receptor 4 (Homo sapiens, UniProt P32245); assay: Displacement of [125I]NDP-MSH from human MC4R expressed in HEK293 cells; type: cell-based
Melanocortin receptor 4 [2] = biological target: T1, Melanocortin receptor 4; assay: Agonist activity at human MC4R expressed in HEK293 cells assessed as cAMP accumulation; type: functional, cell-based
Melanocortin receptor 4 [3] = biological target: T1, Melanocortin receptor 4; assay: Intrinsic activity at human MC4R expressed in HEK293 cells assessed as cAMP accumulation relative to alphaMSH; type: functional, cell-based

T1 sequence (P32245 whole entry): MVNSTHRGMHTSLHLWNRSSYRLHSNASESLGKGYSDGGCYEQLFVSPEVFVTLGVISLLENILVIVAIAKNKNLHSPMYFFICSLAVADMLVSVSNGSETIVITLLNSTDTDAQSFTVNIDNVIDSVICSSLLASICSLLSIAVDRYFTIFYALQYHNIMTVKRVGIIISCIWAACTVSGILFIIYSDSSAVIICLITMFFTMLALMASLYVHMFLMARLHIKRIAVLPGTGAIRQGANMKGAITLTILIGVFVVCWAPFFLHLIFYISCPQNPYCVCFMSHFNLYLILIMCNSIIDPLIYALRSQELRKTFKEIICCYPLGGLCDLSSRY

Row | Compound | pKi (Melanocortin receptor 4 [1]) | pEC50 (Melanocortin receptor 4 [2]) | Intrinsic activity (Melanocortin receptor 4 [3])
1 | Cc1nccn1Cc1ccccc1N1CCN(C(=O)[C@@H]2CN(C(C)C)C[C@H]2c2ccc(Cl)cc2)CC1 | 6.55 | – | –
2 | CC(C)[C@H](NC(=O)[C@@H](C)N)c1cccc(F)c1N1CCN(C(=O)[C@@H]2CN(C(C)C)C[C@H]2c2ccc(Cl)cc2)CC1 | 8.36 | 8.05 | 70%
3 | CC(C)C[C@H](NC(=O)CCN)c1cc(C(F)(F)F)ccc1N1CCN(C(=O)[C@@H]2CN(C(C)C)C[C@H]2c2ccc(Cl)cc2)CC1 | 8.06 | 8.34 | 95%
4 | CC(C)N1C[C@@H](C(=O)N2CCN(c3ccccc3Cn3cncn3)CC2)[C@H](c2ccc(Cl)cc2)C1 | 6.49 | – | –
5 | CC(C)C[C@H](NC(=O)CN)c1cc(C(F)(F)F)ccc1N1CCN(C(=O)[C@@H]2CN(C(C)C)C[C@H]2c2ccc(Cl)cc2)CC1 | 8.05 | 7.36 | 115%
6 | CC(C)C[C@H](N)c1cc(C(F)(F)F)ccc1N1CCN(C(=O)[C@@H]2CN(C(C)C)C[C@H]2c2ccc(Cl)cc2)CC1 | 7.59 | 5.96 | 94%
7 | CC(C)C[C@H](NC(=O)[C@@H](C)N)c1cc(C(F)(F)F)ccc1N1CCN(C(=O)[C@@H]2CN(C(C)C)C[C@H]2c2ccc(Cl)cc2)CC1 | 8.31 | 7.51 | 103%
8 | Cc1ccc(N2CCN(C(=O)[C@@H]3CN(C(C)C)C[C@H]3c3ccc(Cl)cc3)CC2)c([C@@H](NC(=O)CN(C)C)C(C)C)c1 | 8.15 | 6.77 | 100%
9 | CC(C)C[C@H](NC(=O)CN(C)C)c1cc(C(F)(F)F)ccc1N1CCN(C(=O)[C@@H]2CN(C(C)C)C[C@H]2c2ccc(Cl)cc2)CC1 | 7.76 | 7.28 | 99%
10 | CC(C)CN(Cc1ccccc1N1CCN(C(=O)[C@@H]2CN(C(C)C)C[C@H]2c2ccc(Cl)cc2)CC1)CC(C)C | 5.96 | – | –
11 | CC(C)N1C[C@@H](C(=O)N2CCN(c3ccccc3Cn3cnnc3)CC2)[C@H](c2ccc(Cl)cc2)C1 | 6.24 | – | –
12 | CNCC(=O)N[C@@H](CC(C)C)c1cc(C(F)(F)F)ccc1N1CCN(C(=O)[C@@H]2CN(C(C)C)C[C@H]2c2ccc(Cl)cc2)CC1 | 8.11 | 7.17 | 63%
13 | CC(C)N1C[C@@H](C(=O)N2CCN(c3ccccc3CNc3cccnc3)CC2)[C@H](c2ccc(Cl)cc2)C1 | 5.80 | – | –
14 | CC(C)[C@H](NC(=O)CCN)c1cccc(F)c1N1CCN(C(=O)[C@@H]2CN(C(C)C)C[C@H]2c2ccc(Cl)cc2)CC1 | 7.89 | 8.16 | 100%
15 | COCCN(C)Cc1ccccc1N1CCN(C(=O)[C@@H]2CN(C(C)C)C[C@H]2c2ccc(Cl)cc2)CC1 | 6.49 | – | –
16 | CCN(CC)Cc1ccccc1N1CCN(C(=O)[C@@H]2CN(C(C)C)C[C@H]2c2ccc(Cl)cc2)CC1 | 5.92 | – | –
17 | CNCC(=O)N[C@H](c1cccc(F)c1N1CCN(C(=O)[C@@H]2CN(C(C)C)C[C@H]2c2ccc(Cl)cc2)CC1)C(C)C | 7.96 | 7.80 | 114%
18 | CC(C)N1C[C@@H](C(=O)N2CCN(c3ccccc3CNc3ccccc3N)CC2)[C@H](c2ccc(Cl)cc2)C1 | 5.85 | – | –
19 | CC(C)C[C@H](NS(C)(=O)=O)c1cc(C(F)(F)F)ccc1N1CCN(C(=O)[C@@H]2CN(C(C)C)C[C@H]2c2ccc(Cl)cc2)CC1 | 7.06 | 6.35 | 96%
20 | CC(=O)N[C@H](c1cc(C)ccc1N1CCN(C(=O)[C@@H]2CN(C(C)C)C[C@H]2c2ccc(Cl)cc2)CC1)C(C)C | 7.33 | – | 35%
21 | CC(C)CN(Cc1ccccc1N1CCN(C(=O)[C@@H]2CN(C(C)C)C[C@H]2c2ccc(Cl)cc2)CC1)C(=O)CCN | 6.35 | – | –
22 | Cc1ccc(N2CCN(C(=O)[C@@H]3CN(C(C)C)C[C@H]3c3ccc(Cl)cc3)CC2)c([C@H](C(C)C)N(C)C)c1 | 7.89 | – | 44%
23 | CC(C)C[C@H](NC(=O)C1CNC1)c1cc(C(F)(F)F)ccc1N1CCN(C(=O)[C@@H]2CN(C(C)C)C[C@H]2c2ccc(Cl)cc2)CC1 | 7.74 | 8.18 | 80%
24 | CC(C)[C@H](N)c1cccc(F)c1N1CCN(C(=O)[C@@H]2CN(C(C)C)C[C@H]2c2ccc(Cl)cc2)CC1 | 7.68 | 6.57 | 68%
25 | Cc1ccc(N2CCN(C(=O)[C@@H]3CN(C(C)C)C[C@H]3c3ccc(Cl)cc3)CC2)c([C@@H](NC(=O)CCN(C)C)C(C)C)c1 | 8.33 | 7.80 | 102%
26 | Cc1ccc(N2CCN(C(=O)[C@@H]3CN(C(C)C)C[C@H]3c3ccc(Cl)cc3)CC2)c([C@@H](N)C(C)C)c1 | 7.92 | 6.98 | 99%
27 | CC(C)N1C[C@@H](C(=O)N2CCN(c3ccccc3Cn3ccnn3)CC2)[C@H](c2ccc(Cl)cc2)C1 | 6.38 | – | –
28 | CC(C)C[C@H](NC(=O)[C@H](C)N)c1cc(C(F)(F)F)ccc1N1CCN(C(=O)[C@@H]2CN(C(C)C)C[C@H]2c2ccc(Cl)cc2)CC1 | 7.33 | 6.68 | 104%
29 | Cc1cncn1Cc1ccccc1N1CCN(C(=O)[C@@H]2CN(C(C)C)C[C@H]2c2ccc(Cl)cc2)CC1 | 6.60 | – | –
30 | CC(C)C[C@H](NC(=O)CCN(C)C)c1cc(C(F)(F)F)ccc1N1CCN(C(=O)[C@@H]2CN(C(C)C)C[C@H]2c2ccc(Cl)cc2)CC1 | 8.00 | 7.04 | 76%

Results, then the molecule that gave them:

Row | pKi (Melanocortin receptor 4 [1]) | pEC50 (Melanocortin receptor 4 [2]) | Intrinsic activity (Melanocortin receptor 4 [3]) | Compound
31 | 5.94 | – | – | CC(C)N1C[C@@H](C(=O)N2CCN(c3ccccc3C=O)CC2)[C@H](c2ccc(Cl)cc2)C1
32 | 6.28 | – | – | CC(C)N1C[C@@H](C(=O)N2CCN(c3ccccc3CNC3CNC3)CC2)[C@H](c2ccc(Cl)cc2)C1
33 | 6.26 | – | – | CC(C)N1C[C@@H](C(=O)N2CCN(c3ccccc3CN3CCCC3)CC2)[C@H](c2ccc(Cl)cc2)C1
34 | 6.44 | – | – | CC(C)N1C[C@@H](C(=O)N2CCN(c3ccccc3CN3CCNCC3)CC2)[C@H](c2ccc(Cl)cc2)C1
35 | 6.28 | – | – | COc1ccccc1N1CCN(C(=O)[C@@H]2CN(C(C)C)C[C@H]2c2ccc(Cl)cc2)CC1
36 | 5.77 | – | – | CC(C)N1C[C@@H](C(=O)N2CCN(c3ccccc3CNS(C)(=O)=O)CC2)[C@H](c2ccc(Cl)cc2)C1
37 | 6.08 | – | – | CC(C)N1C[C@@H](C(=O)N2CCN(c3ccccc3CN3CCN(C)CC3)CC2)[C@H](c2ccc(Cl)cc2)C1
38 | 5.32 | – | – | CC(C)N1C[C@@H](C(=O)N2CCN(c3ccccc3C#N)CC2)[C@H](c2ccc(Cl)cc2)C1
39 | 6.57 | – | – | CNCCNCc1ccccc1N1CCN(C(=O)[C@@H]2CN(C(C)C)C[C@H]2c2ccc(Cl)cc2)CC1
40 | 6.62 | – | – | CC(C)N1C[C@@H](C(=O)N2CCN(c3ccccc3CN(C)C3CNC3)CC2)[C@H](c2ccc(Cl)cc2)C1
41 | 6.29 | – | – | CC(C)CNCc1ccccc1N1CCN(C(=O)[C@@H]2CN(C(C)C)C[C@H]2c2ccc(Cl)cc2)CC1
42 | 6.02 | – | – | CC(C)N1C[C@@H](C(=O)N2CCN(c3ccccc3CN3CCCCC3)CC2)[C@H](c2ccc(Cl)cc2)C1
43 | 6.64 | – | – | CC(C)N1C[C@@H](C(=O)N2CCN(c3ccccc3CNCCN)CC2)[C@H](c2ccc(Cl)cc2)C1
44 | 6.66 | 6.49 | 52% | CC(C)N1C[C@@H](C(=O)N2CCN(c3ccccc3Cn3ccnc3)CC2)[C@H](c2ccc(Cl)cc2)C1
45 | 5.92 | – | – | CC(C)N1C[C@@H](C(=O)N2CCN(c3ccccc3CN(C)C)CC2)[C@H](c2ccc(Cl)cc2)C1
46 | 5.96 | – | – | CC(C)N1C[C@@H](C(=O)N2CCN(c3ccccc3CN)CC2)[C@H](c2ccc(Cl)cc2)C1
47 | 6.31 | – | – | CC(C)N1C[C@@H](C(=O)N2CCN(c3ccccc3Cn3cccn3)CC2)[C@H](c2ccc(Cl)cc2)C1
48 | 7.04 | 6.41 | 40% | CC(C)N1C[C@@H](C(=O)N2CCN(c3ccccc3CN3CCC(N)CC3)CC2)[C@H](c2ccc(Cl)cc2)C1
49 | 6.72 | – | – | CC(C)N1C[C@@H](C(=O)N2CCN(c3ccccc3CNC3CCNCC3)CC2)[C@H](c2ccc(Cl)cc2)C1
